Reference: patent publication US20250115943A1, “SYSTEM AND METHOD FOR ANTIMICROBIAL SUSCEPTIBILITY TESTING” (priority 2023, published 2025)
≈ marks a conversion by molar mass, not a printed value. Read-outs that look alike come from different tables or passages of the source.

What was measured:
[1] = test system: P. mirabilis LSI 4698; assay: CytoSPAR BLAST antibiotic susceptibility test; assay type: cell-based
Source text: (§1) The disclosed technology, which is referred to as the CytoSPAR BLAST (Bacteria Labeling Antibiotic Susceptibility Test) system, is used to quantitatively assess bacterial minimal inhibitory concentration of antibiotics for in vitro susceptibility testing. Used as an aid in diagnosis for clinicians in determining potential treatment options for patients suspected of having a microbial infection, BLAST is intended to determine susceptibility of microorganisms to the listed antibiotics (or other antimicrobials) according to manufacturer's standards. The system is intended for use with clinical isolates from liquid culture and colonies grown on agar (solid medium) or directly from urine samples. Certain implementations of BLAST determine antibiotic susceptibility for a wide range of bacteria obtained from various types of patient samples, including samples from individuals suffering from urinary tract infections. The disclosed technology includes a high-throughput assay that directly detects bacterial susceptibility to a library of frequently used antibiotics and covers both Gram-negative and Gram-positive bacteria.
(§2) The test incorporates a non-canonical amino acid (ncAA) into newly produced proteins. The incorporated ncAA includes a reactive group which allows a specific modification and detection of the living bacteria. The assay involves bacterial incorporation of the ncAA, a chemical reaction between a reactive group and a fluorophore-tagged ligand, and detection of the newly fluorescent-tagged bacteria using a fluorescent plate reader or functionally similar device. The ncAA is added to bacterial growth media and is incorporated into newly synthesized bacterial proteins. The reactive groups on the ncAA are not naturally found in bacteria and act as a specific reactive group for bacteria undergoing active protein synthesis. […] The entire process is performed in a microtiter filter plate for high-throughput scale-up. Alternatively, a normal 96-well plate can also be used in which case centrifugation is used to wash the plate instead of filtration.
(§3) In an example embodiment, bacterial samples are first diluted and incubated in acclimatization media. After treatment with one or more antimicrobials, the ncAA is added and is taken up by living bacteria during protein biosynthesis in a process called labeling. […] The Click-Chemistry reaction between the alkyne group of the ncAA and the azide group of the fluorophore-tagged ligand requires the presence of copper in the reduced state-copper (I). In other implementations, the functional groups of the click chemistry reaction can be changed so that the ncAA has the azide group and the dye has the alkyne group. […] Other reducing agents may be used in the BLAST assay, for example, aldoses (sugars) including glyceraldehyde, glucose, and ribose to replace sodium ascorbate. Likewise, alternate chelators may be used (e.g., histidine in place of BTTAA). In some implementations, metal-free click chemistry reactions are performed without using copper.
(§4) Using the BLAST system, tests can be performed on isolates or direct urine samples. Isolates may be from urine, blood, or other body fluids. Isolated bacteria may be either Gram-positive or Gram-negative. In an example implementation, living bacterial samples in acclimatization media (Buffer A) are distributed in a microtiter filter plate, wherein certain predetermined wells include antibiotics of interest at different concentrations. These antibiotics are arrayed with increasing concentrations in adjacent wells so that the bacterial response can be measured against each specific concentration. The response is measured quantitatively, and a value that corresponds to the ability of the bacteria to metabolize and grow is measured.

[2] = test system: S. aureus ATCC 29213; assay: CytoSPAR BLAST antibiotic susceptibility test; assay type: cell-based; conditions: for S, I, R: susceptible, intermediate, resistant category; for MIC: Staphylococcus aureus
Source text: as §1, §2, §3, §4

[3] = test system: K. pneumoniae LSI 4552; assay: CytoSPAR BLAST antibiotic susceptibility test; assay type: cell-based
Source text: as §1, §2, §3, §4

[4] = test system: E. coli LSI 770; assay: CytoSPAR BLAST antibiotic susceptibility test; assay type: cell-based; conditions: E. coli LSI 770; for MIC: Escherichia coli, LSI770
Source text: as §1, §2, §3, §4

[5] = test system: K. pneumoniae LSI CT1045; assay: CytoSPAR BLAST antibiotic susceptibility test; assay type: cell-based
Source text: as §1, §2, §3, §4

[6] = test system: P. aeruginosa ATCC 27853; assay: CytoSPAR BLAST antibiotic susceptibility test; assay type: cell-based; conditions: for S, I, R: susceptible, intermediate, resistant category
Source text: as §1, §2, §3, §4

[7] = test system: E. coli ATCC 25922; assay: CytoSPAR BLAST antibiotic susceptibility test; assay type: cell-based; conditions: for MIC: Escherichia coli; for S, I, R: susceptible, intermediate, resistant category
Source text: as §1, §2, §3, §4

[8] = test system: P. mirabilis LSI 4933; assay: CytoSPAR BLAST antibiotic susceptibility test; assay type: cell-based
Source text: as §1, §2, §3, §4

[9] = test system: P. aeruginosa ATCC 27853; conditions: CLSI M100-Ed34E; cited from earlier work
[10] = test system: E. coli ATCC 25922; assay: reference broth microdilution (rBMD); assay type: cell-based; conditions: Escherichia coli, ATCC25922, Table 7, geometric mean MIC rounded to nearest 2-fold dilution, n = 3
Method: (§5) Following optimization of the BLAST assay, two other tests were performed in which 12 antibiotics (covering different classes) and 8 bacterial strains (Gram-positive and Gram-negative) were assayed using the same method as described above. Different bacterial strains were tested against different antibiotics and for each pair tested, the BLAST MIC value was compared to the CLSI QC range where available, or to the reference broth microdilution (rBMD) MIC which was determined in parallel with the BLAST assay following the CLSI protocols (see references [9]).
The inoculated urine cultures were incubated overnight at 35+2° C. Each urine culture was centrifuged, and the sediment used to prepare the BLAST inoculum of 5.0×10^5 CFU/mL to start the assay as described in the protocols section. […] The spiked urine samples were tested in parallel with isolates and the resultant BLAST MIC values were compared. In addition to the BLAST test, all the samples were also tested using the reference broth microdilution (rBMD) method and the MIC values were compared.

[11] = test system: K. pneumoniae LSI 4552; assay: reference broth microdilution (rBMD); assay type: cell-based; conditions: Klebsiella pneumoniae, LSI4552
Method: as §5

[12] = test system: K. pneumoniae LSI CT1045; assay: reference broth microdilution (rBMD); assay type: cell-based; conditions: Klebsiella pneumoniae, LSICT1045
Method: as §5

[13] = test system: P. mirabilis LSI 4933; assay: reference broth microdilution (rBMD); assay type: cell-based; conditions: Proteus mirabilis, LSI4933
Method: as §5

[14] = test system: S. aureus ATCC 29213; conditions: CLSI M100-Ed34E, cited from earlier work
[15] = test system: E. coli; conditions: cited from earlier work
[16] = test system: E. coli strain #14 (CDC); conditions: strain designation, not a BLAST readout; cited from earlier work
[17] = test system: S. saprophyticus; conditions: cited from earlier work
[18] = test system: E. coli ATCC 25922; conditions: E. coli strain #25922 (ATCC); strain designation, not a BLAST readout; cited from earlier work
[19] = test system: E. coli, S. saprophyticus and S. aureus; conditions: for E. coli, S. saprophyticus and S. aureus as reported by the FDA and CLSI (Table 5); cited from earlier work
[20] = test system: E. coli strain #551 (CDC); assay: microbe, parasite or virus in culture; conditions: Escherichia coli, read-out: BLAST MIC, E. coli resistant strain (CDC 551); […]10^8 CFUs/mL; cut-off 0.7; FIG. 11C
Source text: (§6) The disclosed technology, which is referred to as the CytoSPAR BLAST (Bacteria Labeling Antibiotic Susceptibility Test) system, is used to quantitatively assess bacterial minimal inhibitory concentration of antibiotics for in vitro susceptibility testing. Used as an aid in diagnosis for clinicians in determining potential treatment options for patients suspected of having a microbial infection, BLAST is intended to determine susceptibility of microorganisms to the listed antibiotics (or other antimicrobials) according to manufacturer's standards. The system is intended for use with clinical isolates from liquid culture and colonies grown on agar (solid medium) or directly from urine samples. […]
(§7) The test incorporates a non-canonical amino acid (ncAA) into newly produced proteins. […] The assay involves bacterial incorporation of the ncAA, a chemical reaction between a reactive group and a fluorophore-tagged ligand, and detection of the newly fluorescent-tagged bacteria using a fluorescent plate reader or functionally similar device. […]
(§8) Using the BLAST system, tests can be performed on isolates or direct urine samples. […] These antibiotics are arrayed with increasing concentrations in adjacent wells so that the bacterial response can be measured against each specific concentration. […]

[21] = test system: E. coli strain #14 (CDC); assay: microbe, parasite or virus in culture; conditions: Escherichia coli, read-out: BLAST MIC
Source text: as §6, §7, §8

[22] = test system: E. coli strain #551 (CDC); conditions: strain designation, not a BLAST readout; cited from earlier work
[23] = susceptible, intermediate, resistant category

Compound: C[C@H]1COc2c(N3CCN(C)CC3)c(F)cc3c(=O)c(C(=O)O)cn1c23 [Levofloxacin, levofloxacin]
- MIC ([1]; Proteus mirabilis, LSI4698, Table 7): 8.9 µg/mL (≈ 24.6 µM)
- S, I, R [1, 23]: Susceptible
- S, I, R ([2]; S. aureus ATCC 29213): Susceptible
- MIC ([2]; ATCC29213, S. aureus ATCC 29213, 5×10^6 CFUs/mL, cutoff 0.8, FIGS. 19-21, read-out: BLAST MIC): 0.125 µg/mL (≈ 0.346 µM)
- MIC ([2]; ATCC29213, Table 7, S. aureus ATCC 29213, read-out: MIC BLAST): 0.28 µg/mL (≈ 0.775 µM)
- MIC ([2]; ATCC29213, Table 8, S. aureus ATCC 29213, isolates, 5 × 10^5 CFU/mL, read-out: MIC BLAST Isolates): 0.28 µg/mL (≈ 0.775 µM)
- MIC ([2]; ATCC29213, Table 8, S. aureus ATCC 29213, spiked urine sample, 5 × 10^5 CFU/mL, read-out: MIC BLAST Spiked Urine): 0.28 µg/mL (≈ 0.775 µM)
- MIC ([3]; Klebsiella pneumoniae, LSI4552, Table 7): 0.06 µg/mL (≈ 0.166 µM)
- S, I, R [3, 23]: Susceptible
- S, I, R [4, 23]: Resistant
- MIC ([4]; Table 7, read-out: MIC BLAST): 36 µg/mL (≈ 99.6 µM)
- MIC ([4]; Table 8, isolates, 5 × 10^5 CFU/mL, read-out: MIC BLAST Isolates): 35.6 µg/mL (≈ 98.5 µM)
- MIC ([4]; Table 8, spiked urine sample, 5 × 10^5 CFU/mL, read-out: MIC BLAST Spiked Urine): 35.6 µg/mL (≈ 98.5 µM)
- MIC ([5]; Klebsiella pneumoniae, LSICT1045, Table 7): > 71 µg/mL
- S, I, R [5, 23]: Resistant
- MIC ([6]; Pseudomonas aeruginosa, ATCC27853, Table 6, optimized BLAST): 8 µg/mL (≈ 22.1 µM)
- S, I, R [6]: Susceptible
- MIC ([7]; ATCC25922, Table 7, read-out: MIC BLAST): 0.01 µg/mL (≈ 0.0277 µM)
- MIC ([7]; ATCC25922, read-out: MIC BLAST Isolates, Table 8, isolates, 5 × 10^5 CFU/mL): 0.01 µg/mL (≈ 0.0277 µM)
- MIC ([7]; ATCC25922, read-out: MIC BLAST Spiked Urine, Table 8, spiked urine sample, 5 × 10^5 CFU/mL): 0.01 µg/mL (≈ 0.0277 µM)
- S, I, R [7]: Susceptible
- MIC ([8]; Proteus mirabilis, LSI4933, Table 7): 1.1 µg/mL (≈ 3.04 µM)
- S, I, R [8, 23]: Susceptible
- MIC CLSI QC Range [9]: 0.5 to 4.0 µg/mL
- MIC [10]: 0.02 µg/mL (≈ 0.0553 µM)
- MIC [11]: 0.12 µg/mL (≈ 0.332 µM)
- MIC [12]: 128 µg/mL (≈ 354 µM)
- MIC [13]: 1 µg/mL (≈ 2.77 µM)
- MIC CLSI QC Range ([14]; listed as levofloxacin): 0.063 to 0.5 µg/mL
- MIC CLSI QC Range [14]: 0.06 to 0.5 µg/mL
- breakpoint ([15]; stated with the CLSI QC range in FIG. 22 legend): 0.5 µg/mL

Compound: O=C1CN(/N=C/c2ccc([N+](=O)[O-])o2)C(=O)N1 [Nitrofurantoin, nitrofurantoin]
- susceptibility of the strain as listed [16]: Intermediate resistance
- S, I, R ([2]; S. aureus ATCC 29213): Susceptible
- MIC ([2]; ATCC29213, S. aureus ATCC 29213, 5×10^5 CFUs/mL, FIG. 15, read-out: BLAST MIC): 4 µg/mL (≈ 16.8 µM)
- MIC ([2]; ATCC29213, Table 6, S. aureus ATCC 29213, optimized BLAST, cutoff 0.8, read-out: MIC BLAST): 4 µg/mL (≈ 16.8 µM)
- S, I, R [6]: Resistant
- S, I, R [7]: Susceptible
- CLSI breakpoint I ([17]; intermediate): 64 µg/mL
- FDA breakpoint I ([17]; intermediate): 64 µg/mL
- CLSI breakpoint S ([17]; susceptible): 32 µg/mL
- FDA breakpoint S ([17]; susceptible): 32 µg/mL
- susceptibility of the strain as listed [18]: Susceptible
- CLSI QC range [19]: 4 to 16 µg/mL
- CLSI breakpoint I ([15]; intermediate): 64 µg/mL
- FDA breakpoint I ([15]; intermediate): 64 µg/mL
- CLSI breakpoint S ([15]; susceptible): 32 µg/mL
- FDA breakpoint S ([15]; susceptible): 32 µg/mL
- MIC [20]: 32 µg/mL (≈ 134 µM)
- MIC [21]: 32 µg/mL (≈ 134 µM)
- susceptibility of the strain as listed [22]: Resistant
